One molecule from PMC11726150, “Pre‐ADMET studies of 5‐(3′,4′‐dihydroxyphenyl)‐γ‐valerolactone, the bioactive intestinal metabolite of proanthocyanidins” (Archiv Der Pharmazie, 2024) can be followed below.

Entries after “also recorded” stand apart in the source; their conditions may differ.

One data set concerns Caco2 monolayers. Kind of data set: In vitro transport study across 21‐day Caco2 monolayers. Format: in vitro ADME, human. On the procedure: Caco2 cells between passage numbers 42–50 and MDCK cells between passage numbers 21–26 were used for transport studies; the assay was conducted as reported by Volpe^[ [33] ^] with slight modifications. Transport experiments were performed in 12‐well Transwell plates. Caco2 cells were seeded at a density of 60,000 cells/cm^2 and grown for 21 days, with change of media every 3 days, while MDCK cells were seeded at a density of 70,000 cells/cm^2 and grown for 5 days, changing the medium daily. The physiological and morphological formation of a confluent monolayer was evaluated by measuring the TEER value: Caco2 monolayers became confluent 1 week after seeding with TEER values greater than 450 Ω/cm^2, while MDCK monolayers became confluent 24 h after seeding with TEER values greater than 90 Ω/cm^2. Phenol red and serum‐free DMEM/F12 medium was used as transport buffer. For bidirectional transport, VL (50 μM) and control compound (propranolol and paclitaxel, 10 μM) were added to the apical side to determine apical to basolateral transport (A–B; absorptive direction) and to the basal side to determine basolateral to apical transport (B–A; secretory direction). The volume of the apical and basolateral chambers was 0.5 and 1.5 mL, respectively. Aliquots of 120 μL were taken from the basolateral (for A–B transport) or the apical (for B–A transport) chamber at 30, 60, 90, and 120 min. An equal volume was replaced with a transport buffer at every time point. At the beginning and at the end of the experiment, an aliquot was also taken from the apical or basolateral chamber for analysis of the drug. To determine the integrity of monolayers, TEER values were measured before and after the experiment. In addition, at the end of the experiment cells were collected and lysed to evaluate the compound intake. Briefly, cells were washed twice with cold PBS and 200 µL of cold MeOH was added to detach and lysate the cells; subsequently, cells were collected into lo‐bind Eppendorf and sonicated in ice for 10 min, then centrifuged for 15 min at 4°C at 14,000 rpm (Eppendorf Centrifuge 5430 R). The supernatant was collected and used for further analysis.
The apparent permeability P app (cm/s) of compounds was calculated from the following equation (Equation 1), while P app (cm/s) of the metabolites was calculated from the equation (Equation 2): (1) Papp=dQ/dt×1/C×1/A.
Equation (1) for calculating P app (cm/s) of tested reference compounds. (2) Papp=Metabolic cleareance/A.
Equation (2) for calculating P app (cm/s) of compound metabolites.
with Metabolic cleareance=Rate of metabolism/C and where dQ/dt is the rate of transport, C is the initial concentration in the donor compartment, and A is the surface area of the filter. To quantify the rate of transport, cumulative amounts of test compounds were plotted against time (min).
Efflux ratio was calculated using the following equation (Equation 3)^[ [48] ^]: (3) Efflux ratio=Papp(B−A)/Papp(A−B).

Data set [1] in a line: Metabolic stability assay with human liver microsomes. Format: in vitro ADME. The procedure:
HLMs and S9 fractions were used to determine, respectively, phases I and II metabolism of VL. A mixture of the activating cofactors (NADP^+ and UDPGA) and enzymes (G6PO4 and G6PDH) were used to stimulate the metabolism; in the microsome assay UDPGA was not needed. The final concentrations of cofactors NADPH and UDPGA were 1 mM each, while for the enzymes G6PO4 and G6PDH were 10 mM and 2 U/mL, respectively. The phosphate buffer was prepared as a 100 mM solution, pH 7.4, containing 10 mM magnesium chloride in deionized water. Testosterone and 7‐hydroxycoumarin were used as positive controls for phases I and II metabolism, and stock reference solutions of controls and VL were prepared, respectively, at 5 mM and 10 mM concentration in DMSO, and then diluted to a final test concentration of 10 µM. S9 fraction or microsome, final concentration 1 mg/mL, were preincubated with a test compound for 5 min at 37°C in the phosphate buffer, pH 7.4, and then the reactions were initiated by adding the cofactor mixture. A negative control sample was prepared replacing the reaction enzymes with water in the presence of a reaction mixture and test compound VL. […] T ½ was calculated using the interpolating point method using the nonlinear fit option of GraphPad Prism 8, while intrinsic clearance CL'int (mL/min/kg) was calculated as written in Equation (4) and as reported previously:^[ [23] ^] […]

Another data set addresses T1, PXR (Homo sapiens, UniProt O75469).
T1 sequence (O75469 1-434): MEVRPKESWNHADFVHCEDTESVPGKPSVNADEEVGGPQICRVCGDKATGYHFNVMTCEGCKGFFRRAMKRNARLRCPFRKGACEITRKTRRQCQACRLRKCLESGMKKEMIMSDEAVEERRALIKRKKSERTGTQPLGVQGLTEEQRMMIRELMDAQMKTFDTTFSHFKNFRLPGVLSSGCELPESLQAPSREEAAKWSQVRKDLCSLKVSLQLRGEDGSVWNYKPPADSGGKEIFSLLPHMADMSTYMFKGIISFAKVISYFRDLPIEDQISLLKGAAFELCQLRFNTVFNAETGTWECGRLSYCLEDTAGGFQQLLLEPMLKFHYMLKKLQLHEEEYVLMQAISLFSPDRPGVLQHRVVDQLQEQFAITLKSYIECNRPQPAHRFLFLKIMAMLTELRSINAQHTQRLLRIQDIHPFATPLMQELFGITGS
Format: cell-based. More on the design: expressed in transfected cells; host or cells: HepG2 and LS174T cells, transient electroporation. The settings on record: HepG2 cells, all concentrations tested (1.5–50 μM), 24 h. On the procedure:
The PXR activation potential of VL was determined in transiently transfected HepG2 and LS174T cells as described earlier.^[ [50] ^] In brief, 24‐h‐old cells having 70%−80% confluency were trypsinized and transfected with pSG5‐hPXR (25 μg) and PCR‐5 (25 μg) plasmid DNA by electroporation at 180 V (1 pulse for 70 ms). Cells were incubated at room temperature for 8 min and floating dead cells were carefully removed. Cells were seeded in 96‐well plates at a density of 50,000 cells/well. […] Following 24 h of incubation, the culture medium was aspirated and 40 μL of luciferase reagent (Promega Corporation) was added to each well. Luminescence was measured using a Spectramax M5 plate reader (Molecular Devices) and the fold increase in luciferase activity among sample‐treated cells was calculated in comparison with the vehicle‐treated (DMSO) cells.

For the molecule `O=C1CCC(Cc2ccc(O)c(O)c2)O1` (centres unmarked) [VL, 5‐(3′,4′‐dihydroxyphenyl)‐γ‐valerolactone], the “VL in the donor compartment at the end of the experiment” value in the data set with Caco2 monolayers (Caco2, 50 µM, 120 min) was “no longer detectable”. In addition, the “conversion of VL to sulfate” value in the data set on Caco2 monolayers (after 30 min) was determined as 100%. Besides, the “half‐life t ½” value in data set [1] (HLM 1 mg/mL, 10 µM) was 23.084 min. Besides, the half-life at 10 µM in data set [1] (human, liver microsomes, pH 7.4, HLM 1 mg/mL, read-out: half‐life t ½) was found to be 23.1 min. Besides, the “PXR transcriptional activity, fold increase vs vehicle” value on PXR is “does not increase the PXR activity; also recorded: < twofold”.
